As usually defined, the IC50 is the midpoint of a concentration-inhibition curve. For orientation: melting point means the temperature, or range, at which the solid turns liquid.

Experimental findings from patent publication US9656984B2, “PI3K/AKT/mTOR inhibitors and pharmaceutical uses thereof” (UNIVERSITE DE RENNES 1, priority 2013, dated 2017) are described below.

One series deals with AKT phosphorylation. The series is described as follows: In cellulo IC50 of AKT phosphorylation in CEM cells (Western blot densitometry). The series is classed as cell-based. The note with it: Homo sapiens, CCRF-CEM, 2 hours incubation, AKT phosphorylation vs whole AKT, read-out: In vivo IC50. The method, then: CEM cells were incubated for 2 hours with the indicated concentrations of each mentioned compound of formula (I). Cells were then lysed and 100 μg of protein was loaded per line in an SDS-PAGE. Bands from AKT phosphorylation and whole AKT observed by Western blot were scanned and quantified by densitometric analysis. Based on these values, an in cellulo IC50 (half maximal inhibitory concentration) was measured for each compound of formula (I).
(§1) Immunoblots Excepted for immunoprecipitation experiments in which cells were lyzed with RIPA buffer, cells were lyzed for 30 min at 4° C. in Lysis buffer (25 mM HEPES pH 7.4, 1% v/v Triton X-100, 150 mM NaCl, 2 mM EGTA supplemented with a mix of protease inhibitors). Protein concentration was determined by the bicinchoninic acid method (Pierce, Rockford, Ill., USA) according to the manufacturer's protocol. Proteins were resolved by 8, 10 or 12% SDS-PAGE and transferred to a nitrocellulose membrane (GE Healthcare, Buckinghamshire, UK). The membrane was blocked 15 min with TBST (50 mM Tris, 160 mM NaCl, 0.05% v/v Tween 20, pH 7.4) containing 5% w/v dried skimmed milk (TBS™). Primary antibody was incubated overnight at 4° C. in TBS™. The membrane was intensively washed (TBST) and then the peroxydase-labeled anti-mouse IgG1 or IgG2a (CliniSciences, Nanterre, France) was added for 45 min. Proteins were visualized with the enhanced chemiluminescence substrate kit (ECL RevelBIOt®, Ozyme, Saint Quentin en Yvelines, France).
On the technique in general: A western blot detects proteins with antibodies after separation by electrophoresis.

The subject of series [1] is MCF-7 (ER-positive) breast tumor cell line. The series is described as follows: Cell death by MTT assay, MCF-7. Type of series: cell-based, human. The note with it: 24 hours, mean of four experiments. The procedure: (§2) The ER-positive breast tumor cell lines MCF-7 and T47-D and the HER2 positive breast tumor cell lines MDA-MB-453 and BT474 (also ER-positive) were incubated with the indicated concentration of each mentioned compound of formula (I) for 24 hours and then cell death was assessed using MTT assay.
(§3) For each cell line, the percentage of cell death (mean of four experiments for cell lines MCF-7 and T47-D, and two experiments for cell lines MDA-MB-453 and BT474) is given in view of the increasing concentration of each tested compound of the invention.
(§4) Cell viability was assessed using the 3-[4,5-dimethylthiazol-2-yl]-2,5-diphenyltetrazolium bromide (MTT) viability assay (1). In brief, cells (4×10^4 per well) were cultured for 20 h in flat-bottomed 96 well plates with various concentrations of the apoptosis inducer. Then 0.015 ml of MTT (5 mg/ml in PBS) was added to each well and incubated for 4 h at 37° C. Formazan salt precipitats were dissolved by adding 0.115 ml of isopropyl alcohol containing 1% formic acid (v/v), and the absorbance was measured at 570 nm.
(In general: Formazan colour is commonly taken as a measure of viable cells.)

In series [2] the test system is T47-D (ER-positive) breast tumor cell line. The series is described as follows: Cell death by MTT assay, T47-D. The note with it: 24 hours, mean of four experiments. The series is classed as cell-based, human. The method, then:
as §2, §3, §4

For series [3], the system named is MDA-MB-453 (HER2 positive) breast tumor cell line. The series is described as follows: Cell death by MTT assay, MDA-MB-453. Type of series: cell-based, human. The note with it: 24 hours, mean of two experiments. The method, then: as §2, §3, §4
For series [4], the system named is BT474 (ER-positive/HER2-positive) breast tumor cell line. The series is described as follows: Cell death by MTT assay, BT474. The note with it: 24 hours, mean of two experiments. The series is classed as cell-based, human. The procedure: as §2, §3, §4
Another series concerns Leukemic T-cell line CEM. The series is described as follows: Cytotoxic effect by MTT assay, CEM. The series is classed as cell-based. The note with it: 24 hours, FIGS. 2 to 5. The method, then:
(§5) Leukemic T-cell lines Jurkat and CEM were incubated for 24 hours (see FIGS. 1, 2, 3, 4 and 5) or for 20 hours (see FIG. 6) with compounds of formula (I) and with compound A, at the indicated concentrations and cell death was assessed using the viability assay MTT, which estimates the metabolic state of the cell.
as §4

In another series the target is T1, mTOR (Homo sapiens, UniProt P42345).
T1 construct: endogenous in cells; host or cells: CEM leukemic T cells
As to the kind of experiment: Biotin pull-down with streptavidin-coated beads from CEM cells, mTOR immunoblot. Type of series: binding. The note with it: 1 μM, CEM leukemic T cells, FIG. 12B. The method, then:
Compounds 25 and 48 (compound 25 linked to biotin) (1 μM) were incubated with CEM leukemic T cells for indicated times. Then cells were lyzed in RIPA buffer and biotin was immunoprecipitated using streptavidin-coated magnetic beads. Beads were washed and the presence of mTOR was analyzed in compound 48-associated complex by Immunoblotting.
CEM cells (10^7 cells) were pre-incubated for indicated times with 1 μM of compound 25 or compound 48, washed with PBS and lysed using RIPA buffer [50 mM Tris pH7.4, 1% NP-40, 0.5% Na-deoxycholate, 0.1% SDS, 150 mM NaCl, 2 mM EDTA, inhibitors of protease and phosphatase (Sigma)].

The target of the next series is mTORC2 (Homo sapiens, UniProt P42345). The series is described as follows: Immunoblot of AKT serine 473 phosphorylation (target of mTORC2). Also on record: endogenous in cells. The note with it: with increasing compound concentrations, FIG. 12A. Type of series: cell-based. The procedure: (§6) The inhibition of the phosphorylation level of AKT at serine 473, target of mTORC2, and 4EBP1 (also called Eukaryotic translation initiation factor 4E-binding protein 1) at threonines 37/46, which are targets of mTORC1, by compound 48 (compound 25 linked to biotin) was assessed by immunoblotting. Total AKT and 4EBP1 were added as loading controls.
as §1

A further series concerns the target mTORC1 (Homo sapiens, UniProt P42345). As to the kind of experiment: Immunoblot of 4EBP1 threonines 37/46 phosphorylation (targets of mTORC1). The note with it: with increasing compound concentrations, FIG. 12A. On the set-up: endogenous in cells. Type of series: cell-based. The procedure:
as §6, §1

Series [5] deals with PI3K/AKT activity (AKT phosphorylation). As to the kind of experiment: PI3K/AKT/mTOR pathway inhibitory activity: level of AKT phosphorylation in CEM cells over time. The series is classed as cell-based, human. The note with it: 10 μM, FIGS. 7 and 8. The method, then: The CEM cell was incubated with 10 μM of each mentioned compound of formula (I) for the indicated times and then cells were lysed and 100 μg of protein was loaded per line and resolved by SDS-PAGE. The levels of AKT phosphorylation (hallmark of PI3K activation) and total AKT (loading control) were analyzed by Western blot and the amount of AKT phosphorylation relative to the total amount of protein AKT was quantified by densitometric analysis, the intensity of each band was scanned and the level of AKT phosphorylation was reported to the amount of whole AKT and the percentage of phosphorylated-AKT was depicted.
as §1

The test system of series [6] is Leukemic T-cell line Jurkat. As to the kind of experiment: Cytotoxic effect by MTT assay, Jurkat. Type of series: cell-based. The note with it: 24 hours (FIG. 1) or 20 hours (FIG. 6). The method, then: as §5, §4

On to `O=c1cc(N2CCOCC2)oc2c(-c3ccccc3)cccc12` [LY294002, reference compound], for which, in the series with AKT phosphorylation, the IC50 is greater than 10 µM. Besides, the “percentage of cell death” value in [1] (MCF-7, 6.25 μM) is 11.53%; in series [1] (MCF-7, 12.5 μM), 11.067%; in series [1] (MCF-7, 25 μM) it was 13.51%; in series [1] (MCF-7, 50 μM), 18.89%; in [2] (6.25 μM), 32.33%; in series [2] (12.5 μM) it was 40.42%. Besides, the “percentage of cell death” value in series [2] (25 μM) is reported as 50.01%; in series [2] (50 μM) it was 55.69%; in series [3] (MDA-MB-453, 0.390625 μM) it was 0%; in [3] (MDA-MB-453, 0.78125 μM) it was 0%; in [3] (MDA-MB-453, 1.5625 μM), 0%; in [3] (MDA-MB-453, 3.125 μM) it was 0%. Further, the “percentage of cell death” value amounted to 17.45% in series [3] (MDA-MB-453, 6.25 μM); 53.74% in series [3] (MDA-MB-453, 12.5 μM); 76.61% in [3] (MDA-MB-453, 25 μM); 86.55% in [3] (MDA-MB-453, 50 μM); 35.35% in [4] (BT474, 6.25 μM); 48.7% in series [4] (BT474, 12.5 μM). Further, the “percentage of cell death” value in series [4] (BT474, 25 μM) is recorded as 62.79%; in series [4] (BT474, 50 μM), 77.2%. Besides, the “percentage of cell death (cytotoxic effect)” value in the series with Leukemic T-cell line CEM is listed as “much lower cell death percentage”.
`O=C(CCCCC1SC[C@@H]2NC(=O)N[C@H]12)NCCCOc1cc(Br)c2c(c1)C=C([N+](=O)[O-])C(c1ccc(Br)cc1)O2` (some centres unmarked) [Compound 48]: the “binding to mTOR” value on mTOR is listed as “binds to mTOR”. Also, the “phosphorylation of AKT at serine 473” value at mTORC2 is “decreases”. In addition, at mTORC1, the “phosphorylation of 4EBP1 at threonines 37/46” value was “decreases”.
In the case of `CCOc1cccc2c1OC(c1ccc(F)cc1)C([N+](=O)[O-])=C2` (centres unmarked) [A], the “inhibitory activity on PI3K/AKT (level of AKT phosphorylation)” value in series [5] was “very weak inhibitory activity”. The “percentage of cell death (cytotoxic effect)” value (in [6]; in the series on Leukemic T-cell line CEM) was “lower percentage of cell death” in each case.
Compound `O=C(O)C1=Cc2cc(Br)cc(Br)c2OC1c1ccc(Br)cc1` (centres unmarked) [Compound 54, 6,8-dibromo-2(4-bromophenyl)-2H-chromene-3-carboxylic acid] registered a melting point of 256 to 258 °C.
The compound `COC(=O)C1=Cc2cc(Br)ccc2OC1c1ccc(Br)cc1` (centres unmarked) [Compound 55, Methyl-6-Bromo-2-(4-bromophenyl)-2H-chromene-3-carboxylate] returned a melting point of 118 to 120 °C.
`O=C(O)C1=Cc2cc(Br)ccc2OC1c1ccc(Br)cc1` (centres unmarked) [Compound 53, 6-bromo-2-(4-bromophenyl)-2H-chromene-3-carboxylic acid] yielded a melting point of 208 to 210 °C.
Still for that read-out and setting: the result for `N#CC1=Cc2cc(Br)cc(Br)c2OC1c1ccc(Br)cc1` (centres unmarked) [Compound 62, 6,8-Dibromo-2-(4-bromophenyl)-2H-chromene-3-carbonitrile] reads 196 to 198 °C.
